Test system: IFN-γ
Assay: Serum IFN-γ concentration by sandwich ELISA after i.v. injection of glycolipid into mice
Assay type: in vivo
Conditions: BALB/c mice, 1 μg i.v., ELISA at 2, 6, 12 and 24 hours post-injection
Description: α-Galactosylceramide (α-GalCer, KRN or KRN7000) was synthesized by Kirin Brewery (Gumma, Japan). The stock solution was dissolved in a 0.5% polysorbate −20 (Nikko Chemical, Tokyo), 0.9% NaCl solution at a concentration of 200 μg/ml, and diluted in PBS just before injection into mice. α-C-galactosylceramide (α-C-GalCer, CRONY or CRONY-101) was synthesized as described in commonly owned U.S. patent application Ser. No. 10/462,211. Compounds […], GCK75(a) and GCK75(b) were synthesized as described herein. The stock solution was originally dissolved in 100% DMSO at a concentration of 1 mg/ml. Before injection into mice, it was diluted to a concentration of 200 μg/ml in a 0.5% polysorbate-20 (Nikko Chemical, Tokyo), 0.9% NaCl solution, and diluted in PBS just before injection into mice. […]
The serum concentrations of IFN-γ were measured at 2, 6, 12, and 24 hours after treatment with α-GalCer, α-C-GalCer, compound […], GCK75(a), GCK75(b), or nothing using a sandwich ELISA (e-bioscience, San Diego).
To compare the timing of immunological responses to α-GalCer (KRN), α-C-GalCer (CRONY), GCM11i, GCK75(a), and GCK75(b), mice were injected intravenously (i.v.) with 1 μg of each of the glycolipids or with nothing. At 2, 6, 12, and 24 hours post-injection, IFN-γ concentrations in the sera were measured by ELISA.

Substance: α-C-galactosylceramide [α-C-GalCer]
- time of peak IFN-γ response in the sera post-injection: 24 h

Reference: US20050222048A1, “Novel synthetic C-glycolipids, their synthesis and use to treat infections, cancer and autoimmune diseases” (The Research Foundation of The City University of New York, priority 2004, published 2005)
